Patent US20240226052A1, “A SPECIFIC COMBINATION OF LIPIDS AND METHODS AND USES RELATED THERETO” (HELSINGIN YLIOPISTO, priority 2021, published 2024)

Key:
[1] = Surface pressure and surface potential isotherms and Brewster angle microscopy at the air-buffer interface; format: physicochemical; details: 35 °C; for spreading / monolayer formation on the aqueous surface: PBS
Protocol: (§1) The lipid species were either synthesized as described above or obtained from commercial sources (e.g. Nu-Check-Prep, Elysian, MN) and studied on their own at first. A wide range of lipid mixtures were prepared by weighing selected compounds at specific ratios and further dilution in chloroform to obtain selected concentrations. A 2 mM concentration of the corresponding mixtures was used in the surface potential and pressure measurements and a 5 mM concentration in the evaporation resistance measurements discussed herein.
The lipid mixtures dissolved in chloroform or the formulations were spread onto the air-buffer interface of either a KSV minitrough (Helsinki, Finland) or a KSV large trough which was filled with PBS buffer. Chloroform was allowed to evaporate for 3 min before starting measurements. The surface pressure was measured using a Wilhelmy plate, the surface potential was measured using a KSV surface potential sensor (Espoo, Finland) and Brewster angle microscopy images were captured using a KSV NIMA microBAM (Espoo, Finland) instrument. The films were compressed at a constant rate of 5 or 10 mm/min and the subphase temperature was kept at 35±1° C. The measurements were performed in an acrylic box under an ozone-free atmosphere to prevent undesired oxidation. An ozone-free atmosphere was generated by passing dry air through ODS-3P ozone destruct unit (Ozone solutions, Hull, Iowa) at a rate of 76 l/min within the enclosure.
The organizational behavior of FAHFA/OAHFA and wax ester mixtures were investigated by measuring surface pressure and surface potential isotherms, and, imaging the monolayer structure with a Brewster angle microscope. A phosphate buffered saline (PBS) solution was used as an in vitro model of the ocular surface and the measurements were conducted at physiological temperature (35° C.). With this model system, it is possible to accurately simulate the conditions residing on the ocular surface and the changes occurring during a blink of the eye, both in terms of surface pressure and the capabilities of the monolayer to respread over many compression-expansion cycles. Thus, the study protocol provides the essential information required for evaluating the suitability of the composition in the intended applications. More details on the study protocol can be found in the inventors' previous publications on the topic (Paananen, Ekholm et. al. in Langmuir 2019, Ocul. Surf. 2020, J. Org. Chem. 2021).

[2] = Evaporation resistance of lipid films (modified Langmuir-Schaefer desiccant cartridge method); format: physicochemical; details: lipid film on PBS, 35 °C; compressed to Mma 2-40 Å^2/molecule
Protocol: as §1
Evaporation resistance is a property of the lipid film residing on top or above an aqueous surface, independent of the measurement method and conditions of the measurement. […] Evaporation resistance of the lipid film can be determined, for example, by measuring the evaporative flux from the aqueous surface without the lipid layer, Jw, and with a lipid film present, Jf. […] The lipid film evaporation resistance can be expressed as a function of measured quantities as rm=Δc(1/Jf−1/Jw).
In this example, the evaporation resistance was determined according to the method originally developed by Langmuir et al. (Langmuir, I. and Schaefer, V., J. 1943, J. Franklin Inst., Vol. 235, 119-162) although with certain modifications (as set out in Bland et al., Langmuir, 2019, 35, 3545-3552 (Supp. Info.). […]

| spreading / monolayer formation on the aqueous surface [1] | mean molecular area at surface pressure lift-off ([1]; pure lipid on PBS) | maximum evaporation resistance [2] | surface pressure at transition to a solid monolayer ([1]; pure lipid on PBS) | melting point | Compound |
| --- | --- | --- | --- | --- | --- |
| form liquid monolayers upon spreading | 70 Å^2/molecule |  |  |  | CCCCCCCC/C=C\CCCCCCCC(=O)OCCCCCCCCCCCCCCCCCCCC [AO, arachidyl oleate] |
| form liquid monolayers upon spreading | 140 Å^2/molecule | 3 to 5 s/cm | 2 mN/m |  | CCCCCCCC/C=C\CCCCCCCC(=O)OCCCCCCCCCCCCCCCCCCCC(=O)O [Example 20-OAHFA, 20-(oleoyloxy)eicosanoic acid] |
|  |  |  |  | 36 to 37.5 °C | CCCCCCCC/C=C\CCCCCCCC(=O)OCCCCCCCCCCCCCCCCCCCCCCCC(C)C [Example 5, 24-methylpentacosyl oleate] |

| Compound | spreading / monolayer formation on the aqueous surface [1] | mean molecular area at surface pressure lift-off ([1]; pure lipid on PBS) | maximum evaporation resistance [2] | surface pressure at transition to a solid monolayer ([1]; pure lipid on PBS) | melting point |
| --- | --- | --- | --- | --- | --- |
| CCCCCCCC/C=C\CCCCCCCC(=O)OCCCCCCCCCCCCCCCCCCCCCC [BO, behenyl oleate] | did not spread on the aqueous surface but formed solid aggregates instead |  |  |  |  |
